Measurements from patent publication US20170165294A1, “METHOD AND APPARATUS FOR ADMINISTERING GASES INCLUDING NITRIC OXIDE TO ADDRESS FIBROSIS” (priority 2015, published 2017).
Where two headings read alike, the source gives them in different places.

Legend:
[1] = system: neonatal rats; settings: compared with control rats; cited from earlier work
[2] = system: mice with intratracheal administration of LPS; assay: LPS-induced lung injury in mice (intratracheal LPS); type: in vivo; settings: for lung injury: 2% H2 and/or 20 ppm NO for 3 hours starting at 5 minutes or 3 hours after LPS administration; for pulmonary inflammation / cell apoptosis: H2 and/or NO treatment; for cell apoptosis: pulmonary
[3] = system: NF-κB; assay: LPS-induced pulmonary NF-κB activation; type: in vivo, mice; settings: H2 and/or NO treatment
[4] = system: polymicrobial sepsis; assay: Polymicrobial sepsis-induced lung injury; type: in vivo; settings: H2 and/or NO treatment
Source text: However until applicants' discovery, there has not been a successful combination of hydrogen gas with breathing gas using the claimed apparatus and methods. Applicants have discovered that NO's effect as an antioxidant may be enhanced by eliminating highly reactive by-products of NO inhalation such as peroxynitrite, by adding H2 to inhaled NO gas.

[5] = system: myofibroblasts; settings: rat, in vivo; cited from earlier work
[6] = system: rats; settings: inhaled; cited from earlier work
[7] = system: neonatal piglets; settings: cited from earlier work; for lung collagen accumulation: short-term inhaled exposure, neonatal piglets
[8] = system: HIF; settings: cited from earlier work
[9] = system: chrondrocytes; settings: cited from earlier work
[10] = system: brain ischemia-reperfusion (I/R); settings: inhaled; oxidative stress induced by focal ischemia-reperfusion; cited from earlier work

Row | Compound | survival of exposure to >95% O2 [1] | lung injury [2] | pulmonary inflammation [2] | cell apoptosis [2] | LPS-induced pulmonary early and late NF-κB activation [3] | lung injury in polymicrobial sepsis [4] | collagen synthesis [5] | fibroblast number and differentiation [5] | survival in high O2 exposure [6] | lung collagen content after recovery ([7]; after a 3-day recovery period in RA) | lung collagen accumulation [7] | effect on HIF ([8]; high doses and after 30 minutes) | effect on HIF ([8]; low dose, for 30 minutes, during hypoxia) | generation of hydroxyl radicals and peroxynitrite [9] | brain injury [10]
1 | COC(=O)[C@@H](N)CCCNC(=N)N[N+](=O)[O-] [Nw-nitro-1-arginine methyl ester] | significantly fewer survived |  |  |  |  |  |  |  |  |  |  |  |  |  | 
2 | [N]=O [NO, nitric oxide] |  | significantly improved | down-regulated | down-regulated | inhibited | significantly attenuated | inhibiting | reducing | increase survival | significant decline | increases | inhibitory | stimulates |  | 
3 | O=O [O2, oxygen] |  |  |  |  |  |  |  |  |  |  | increases |  |  |  | 
4 | [HH] [H2, hydrogen] |  | significantly improved | down-regulated | down-regulated | inhibited | significantly attenuated |  |  |  |  |  |  |  | selectively reduce | markedly suppressed
